Assays:
[1] = test system: barnyardgrass; experiment: Test A preemergence; type: in vivo, Echinochloa crus-galli; details: for Barnyardgrass plant response rating: 500 g ai/ha
Procedure, shortened: (§1)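 Greenhouse pot test, loam/sand soil. Formulation: non-phytotoxic solvent mix plus surfactant. Pre: directed spray onto soil after sowing. Post: plants at 1–2 leaf, 2–10 cm. Rated visually vs untreated controls at ~10 d, 0 (no effect) to 100 (complete control).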

[2] = test system: large (Lg) crabgrass; experiment: Test A preemergence; type: in vivo, Digitaria sanguinalis; details: for Crabgrass, Large plant response rating: 500 g ai/ha
Procedure, shortened: as §1

[3] = test system: wheat; experiment: Test A preemergence; type: in vivo, Triticum aestivum; details: for Wheat plant response rating (0 to 100 scale): 125 g ai/ha; for Wheat plant response rating: 500 g ai/ha, 0 to 100 scale where 0 is no effect and 100 is complete control
Procedure, shortened: as §1

[4] = test system: giant foxtail; experiment: Test A postemergence; type: in vivo, Setaria faberii; details: 0 to 100 scale where 0 is no effect and 100 is complete control; for Foxtail, Giant plant response rating: 125 g ai/ha; for Plant response rating, Foxtail, Giant: 500 g ai/ha
Procedure, shortened: as §1

[5] = test system: morningglory; experiment: Test A postemergence; type: in vivo, Ipomoea spp.; details: 0 to 100 scale where 0 is no effect and 100 is complete control; for Morningglory plant response rating: 125 g ai/ha; for Plant response rating, Morningglory: 500 g ai/ha
Procedure, shortened: as §1

[6] = test system: corn; experiment: Test A postemergence; type: in vivo, Zea mays; details: 0 to 100 scale where 0 is no effect and 100 is complete control; for Corn plant response rating: 125 g ai/ha; for Plant response rating, Corn: 500 g ai/ha
Procedure, shortened: as §1

[7] = test system: Heteranthera limosa; experiment: Test B flooded paddy test; type: in vivo; details: Flood, 250 g ai/ha; 0 to 100 scale where 0 is no effect and 100 is complete control
Procedure, shortened: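 Flooded to 3 cm at the 2-leaf stage, pots received compound through the paddy water and were kept at that depth under greenhouse conditions. After 13–15 days, effect was rated by eye relative to controls, 0 = none and 100 = complete control.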

[8] = test system: Italian ryegrass; experiment: Test C preemergence; type: in vivo, Lolium multiflorum; details: for Ryegrass, Italian plant response rating: preemergence
Procedure, shortened: (§2)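 Whole-plant greenhouse test with surfactant-containing solvent formulation, applied preemergence to sown loam–sand pots or postemergence to 2–18 cm plants. Scored by eye 13 to 15 days on, 0–100 scale.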

[9] = test system: ragweed; experiment: Test C preemergence; type: in vivo, Ambrosia elatior; details: for Ragweed plant response rating: preemergence
Procedure, shortened: as §2

[10] = test system: oilseed rape; experiment: Test C preemergence; type: in vivo, Brassica napus; details: for Oilseed Rape plant response rating: preemergence
Procedure, shortened: as §2

[11] = test system: corn; experiment: Test C postemergence; type: in vivo, Zea mays; details: for Plant response rating (0 to 100), Corn: 16 g ai/ha, 0 is no effect, 100 is complete control; for Corn plant response rating: 31 g ai/ha; for Corn plant response rating / Plant response rating, Corn: scale 0 to 100 (0 no effect, 100 complete control)
Procedure, shortened: as §2

[12] = test system: morningglory; experiment: Test C postemergence; type: in vivo, Ipomoea coccinea; details: for Plant response rating (0 to 100), Morningglory: 16 g ai/ha, 0 is no effect, 100 is complete control; for Morningglory plant response rating: 31 g ai/ha; for Morningglory plant response rating / Plant response rating, Morningglory: scale 0 to 100 (0 no effect, 100 complete control)
Procedure, shortened: as §2

[13] = test system: pigweed; experiment: Test C postemergence; type: in vivo, Amaranthus retroflexus; details: for Plant response rating (0 to 100), Pigweed: 16 g ai/ha, 0 is no effect, 100 is complete control; for Pigweed plant response rating: 31 g ai/ha; for Pigweed plant response rating / Plant response rating, Pigweed: scale 0 to 100 (0 no effect, 100 complete control)
Procedure, shortened: as §2

[14] = test system: kochia; experiment: Test C postemergence; type: in vivo, Kochia scoparia; details: for Plant response rating (0 to 100), Kochia: 16 g ai/ha, 0 is no effect, 100 is complete control; for Kochia plant response rating: 31 g ai/ha; for Kochia plant response rating / Plant response rating, Kochia: scale 0 to 100 (0 no effect, 100 complete control)
Procedure, shortened: as §2

[15] = test system: wild oat; experiment: Test C postemergence; type: in vivo, Avena fatua; details: for Plant response rating (0 to 100), Oat, Wild: 16 g ai/ha, 0 is no effect, 100 is complete control; for Oat, Wild plant response rating: 31 g ai/ha; for Oat, Wild plant response rating / Plant response rating, Oat, Wild: scale 0 to 100 (0 no effect, 100 complete control)
Procedure, shortened: as §2

[16] = 125 g ai/ha, 0 to 100 scale where 0 is no effect and 100 is complete control
[17] = 0 to 100 scale where 0 is no effect and 100 is complete control
[18] = 16 g ai/ha, scale 0 to 100 (0 no effect, 100 complete control)
[19] = 62 g ai/ha, scale 0 (no effect) to 100 (complete control)
[20] = 125 g ai/ha, scale 0 (no effect) to 100 (complete control)
[21] = postemergence, visual rating, 13 to 15 days
[22] = 125 g ai/ha, postemergence, visual rating
[23] = Preemergence, 62 g ai/ha, scale 0 to 100, 0 no effect, 100 complete control
[24] = Postemergence, 62 g ai/ha, 13 to 15 days

FC(F)(F)c1cnn(-c2c(Cl)cccc2Oc2ncc(Cl)cn2)c1 [Compound 167]
Plant response rating, Barnyardgrass [1, 16]: 80
Barnyardgrass plant response rating [1, 17]: 100
Plant response rating, Crabgrass, Large [2, 16]: 100
Crabgrass, Large plant response rating [2, 17]: 100
Wheat plant response rating (0 to 100 scale) [3]: 0
Wheat plant response rating [3]: 50
Foxtail, Giant plant response rating [4]: 90
Plant response rating, Foxtail, Giant [4]: 90
Morningglory plant response rating [5]: 80
Plant response rating, Morningglory [5]: 100
Corn plant response rating [6]: 40
Plant response rating, Corn [6]: 50
Plant response rating, Ducksalad [7]: 100
Ryegrass, Italian plant response rating [8, 18]: 5
Ryegrass, Italian plant response rating [8, 19]: 80
Ryegrass, Italian plant response rating [8, 20]: 90
Ragweed plant response rating [9, 18]: 15
Ragweed plant response rating [9, 19]: 15
Ragweed plant response rating [9, 20]: 20
Oilseed Rape plant response rating [10, 18]: 80
Oilseed Rape plant response rating [10, 19]: 90
Oilseed Rape plant response rating [10, 20]: 98
Plant response rating (0 to 100), Corn ([11]; postemergence): 5
Corn plant response rating [11, 21]: 5
Plant response rating, Corn [11, 22]: 15
Plant response rating, Corn ([11]; Postemergence, 62 g ai/ha): 10
Plant response rating (0 to 100), Morningglory ([12]; postemergence): 80
Morningglory plant response rating [12, 21]: 60
Plant response rating, Morningglory [12, 22]: 90
Plant response rating, Morningglory ([12]; Postemergence, 62 g ai/ha): 98
Plant response rating (0 to 100), Pigweed ([13]; postemergence): 80
Pigweed plant response rating [13, 21]: 90
Plant response rating, Pigweed [13, 22]: 98
Plant response rating, Pigweed ([13]; Postemergence, 62 g ai/ha): 95
Plant response rating (0 to 100), Kochia ([14]; postemergence): 90
Kochia plant response rating [14, 21]: 90
Plant response rating, Kochia [14, 22]: 95
Plant response rating, Kochia ([14]; Postemergence, 62 g ai/ha): 90
Plant response rating (0 to 100), Oat, Wild ([15]; postemergence): 5
Oat, Wild plant response rating [15, 21]: 25
Plant response rating, Oat, Wild [15, 22]: 35
Plant response rating, Oat, Wild ([15]; Postemergence, 62 g ai/ha): 35

N#Cc1cnn(-c2c(Oc3ncc(Cl)cn3)cccc2C(F)F)c1 [Compound 236]
Barnyardgrass plant response rating (0 to 100 scale, 0 is no effect, 100 is complete control) ([1]; 125 g ai/ha): 100
Barnyardgrass plant response rating [1, 17]: 100
Crabgrass, Large plant response rating (0 to 100 scale) ([2]; 125 g ai/ha): 100
Crabgrass, Large plant response rating [2, 17]: 100
Wheat plant response rating (0 to 100 scale) [3]: 0
Wheat plant response rating [3]: 100
Foxtail, Giant plant response rating [4]: 90
Plant response rating, Foxtail, Giant [4]: 100
Morningglory plant response rating [5]: 80
Plant response rating, Morningglory [5]: 100
Corn plant response rating [6]: 70
Plant response rating, Corn [6]: 100
Plant response rating, Ducksalad [7]: 100
Ryegrass, Italian plant response rating [8, 18]: 0
Ryegrass, Italian plant response rating [8, 20]: 85
Plant response rating, Ryegrass, Italian [8, 23]: 45
Ragweed plant response rating [9, 18]: 15
Ragweed plant response rating [9, 20]: 90
Plant response rating, Ragweed [9, 23]: 85
Oilseed Rape plant response rating [10, 18]: 80
Oilseed Rape plant response rating [10, 20]: 100
Plant response rating, Oilseed Rape [10, 23]: 100
Plant response rating (0 to 100), Corn ([11]; postemergence): 5
Corn plant response rating [11, 21]: 5
Plant response rating, Corn [11, 22]: 10
Plant response rating, Corn [11, 24]: 5
Plant response rating (0 to 100), Morningglory ([12]; postemergence): 10
Morningglory plant response rating [12, 21]: 45
Plant response rating, Morningglory [12, 22]: 75
Plant response rating, Morningglory [12, 24]: 70
Plant response rating (0 to 100), Pigweed ([13]; postemergence): 60
Pigweed plant response rating [13, 21]: 90
Plant response rating, Pigweed [13, 22]: 95
Plant response rating, Pigweed [13, 24]: 90
Plant response rating (0 to 100), Kochia ([14]; postemergence): 30
Kochia plant response rating [14, 21]: 80
Plant response rating, Kochia [14, 22]: 90
Plant response rating, Kochia [14, 24]: 85
Plant response rating (0 to 100), Oat, Wild ([15]; postemergence): 0
Oat, Wild plant response rating [15, 21]: 0
Plant response rating, Oat, Wild [15, 22]: 5
Plant response rating, Oat, Wild [15, 24]: 5

— patent US9695155B2, “Herbicidal substituted pyrimidinyloxy benzene compounds” (E. I. DU PONT DE NEMOURS AND COMPANY, priority 2013, dated 2017)
